ChEMBL document CHEMBL5046291, “Evodiamine-Inspired Topoisomerase-Histone Deacetylase Dual Inhibitors: Novel Orally Active Antitumor Agents for Leukemia Therapy” (J Med Chem, 2022)
Active and inactive are the calls of the source. The calls are words filed in the database; no cut-off is given here.

Columns and labels:
HEL [1] = assay: Induction of apoptosis in HEL cells assessed as apoptotic cells at 0.1 uM incubated for 48 hrs by annexin V-FITC/PI staining based flow cytometry (reference value: 3.95%); assay type: functional, Homo sapiens
HEL [2] = assay: Induction of apoptosis in HEL cells assessed as apoptotic cells at 0.5 uM incubated for 48 hrs by annexin V-FITC/PI staining based flow cytometry (reference value: 4.23%); assay type: functional, Homo sapiens
HEL [3] = assay: Antitumor activity against HEL cells xenografted in BALB/C mouse assessed as T/C value at 10 mg/kg, po qd for 14 days consecutively by caliper method relative to control; assay type: functional, Homo sapiens; conditions: time 14 day
[4] = molecular target: T1, DNA topoisomerase 1 (Homo sapiens) (UniProt P11387); assay: Inhibition of recombinant Top1 (unknown origin) assessed as inhibition of relaxation of supercoiled pBR322 plasmid DNA at 100 uM incubated for 15 mins by ethidium bromide staining based agarose gel electrophoresis analysis
T1 sequence (whole entry): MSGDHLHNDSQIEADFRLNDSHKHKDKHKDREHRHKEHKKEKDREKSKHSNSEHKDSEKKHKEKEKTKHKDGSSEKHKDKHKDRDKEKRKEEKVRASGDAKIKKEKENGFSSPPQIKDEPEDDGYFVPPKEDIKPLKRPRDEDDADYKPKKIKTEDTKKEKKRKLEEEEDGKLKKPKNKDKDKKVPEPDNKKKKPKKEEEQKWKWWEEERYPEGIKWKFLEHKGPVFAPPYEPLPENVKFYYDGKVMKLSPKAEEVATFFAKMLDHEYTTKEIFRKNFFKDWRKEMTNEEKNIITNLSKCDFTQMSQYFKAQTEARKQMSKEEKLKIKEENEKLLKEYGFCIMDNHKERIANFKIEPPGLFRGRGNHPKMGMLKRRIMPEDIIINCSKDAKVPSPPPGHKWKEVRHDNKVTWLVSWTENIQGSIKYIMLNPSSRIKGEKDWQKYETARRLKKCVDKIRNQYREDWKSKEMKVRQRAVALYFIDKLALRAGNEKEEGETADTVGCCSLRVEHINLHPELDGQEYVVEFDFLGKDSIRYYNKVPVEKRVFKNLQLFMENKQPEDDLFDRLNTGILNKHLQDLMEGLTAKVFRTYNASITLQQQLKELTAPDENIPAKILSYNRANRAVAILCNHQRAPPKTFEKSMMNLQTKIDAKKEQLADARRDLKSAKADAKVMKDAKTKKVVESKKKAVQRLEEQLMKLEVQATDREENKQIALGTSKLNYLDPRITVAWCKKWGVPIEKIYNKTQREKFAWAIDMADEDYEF

[5] = molecular target: DNA topoisomerase 2-alpha (Homo sapiens) (UniProt P11388); assay: Inhibition of recombinant Top2 (unknown origin) assessed as inhibition of relaxation of supercoiled pBR322 plasmid DNA at 50 uM incubated for 15 mins by ethidium bromide staining based agarose gel electrophoresis analysis
Histone deacetylase 1 [6] = molecular target: T2, Histone deacetylase 1 (Homo sapiens, UniProt Q13547); assay: Inhibition of full-length recombinant human HDAC1 expressed in Baculovirus expression system using Ac-Leu-Gly-Lys(Ac)-AMC as substrate preincubated for 5 mins followed by substrate addition and further incubated for 30 mins by fluorescence based microtiter plate reader assay
MCF7 = assay: Antiproliferative activity against human MCF7 cells assessed as cell growth inhibition incubated for 8 hrs by CCK8 assay; assay type: functional, cell-based; conditions: MCF7, 8 h
A549 = assay: Antiproliferative activity against human A549 cells assessed as cell growth inhibition incubated for 8 hrs by CCK8 assay; assay type: functional, cell-based; conditions: A549, 8 h
HCT-116 = assay: Antiproliferative activity against human HCT-116 cells assessed as cell growth inhibition incubated for 8 hrs by CCK8 assay; assay type: functional, cell-based; conditions: HCT-116, 8 h
HepG2 = assay: Antiproliferative activity against human HepG2 cells assessed as cell growth inhibition incubated for 8 hrs by CCK8 assay; assay type: functional, cell-based; conditions: HepG2, 8 h
K562 = assay: Antiproliferative activity against human K562 cells assessed as cell growth inhibition incubated for 8 hrs by CCK8 assay; assay type: functional, cell-based; conditions: K562, 8 h
HEL [7] = assay: Antiproliferative activity against HEL cells assessed as cell growth inhibition incubated for 8 hrs by CCK8 assay; assay type: functional, cell-based; conditions: Homo sapiens
[8] = molecular target: T1, DNA topoisomerase 1 (Homo sapiens); assay: Inhibition of recombinant Top1 (unknown origin) assessed as inhibition of relaxation of supercoiled pBR322 plasmid DNA at 50 uM incubated for 15 mins by ethidium bromide staining based agarose gel electrophoresis analysis
[9] = molecular target: DNA topoisomerase 2-alpha (Homo sapiens) (UniProt P11388); assay: Inhibition of recombinant Top2 (unknown origin) assessed as inhibition of relaxation of supercoiled pBR322 plasmid DNA at 100 uM incubated for 15 mins by ethidium bromide staining based agarose gel electrophoresis analysis
Histone deacetylase 2 [10] = molecular target: T3, Histone deacetylase 2 (Homo sapiens, UniProt Q92769); assay: Inhibition of recombinant full length C-terminal GST tagged human HDAC2 expressed in baculovirus infected Sf9 insect cells using Ac-Leu-Gly-Lys(Ac)-AMC as substrate preincubated for 5 mins followed by substrate addition and further incubated for 30 mins by fluorescence based microtiter plate reader assay
Histone deacetylase 3 = Histone deacetylase 3 (Homo sapiens, UniProt O15379); assay: Inhibition of recombinant His-tagged human HDAC3 expressed in baculovirus infected insect cells using Ac-Leu-Gly-Lys(Ac)-AMC as substrate preincubated for 5 mins followed by substrate addition and further incubated for 30 mins by fluorescence based microtiter plate reader assay
[11] = molecular target: T4, Protein deacetylase HDAC6 (Homo sapiens, UniProt Q9UBN7); assay: Inhibition of full-length recombinant N-terminal GST-tagged human HDAC6 expressed in baculovirus infected Sf9 cells using Ac-Leu-Gly-Lys(Ac)-AMC as substrate preincubated for 5 mins followed by substrate addition and further incubated for 30 mins by fluorescence based microtiter plate reader assay
T4 sequence (Q9UBN7 whole entry): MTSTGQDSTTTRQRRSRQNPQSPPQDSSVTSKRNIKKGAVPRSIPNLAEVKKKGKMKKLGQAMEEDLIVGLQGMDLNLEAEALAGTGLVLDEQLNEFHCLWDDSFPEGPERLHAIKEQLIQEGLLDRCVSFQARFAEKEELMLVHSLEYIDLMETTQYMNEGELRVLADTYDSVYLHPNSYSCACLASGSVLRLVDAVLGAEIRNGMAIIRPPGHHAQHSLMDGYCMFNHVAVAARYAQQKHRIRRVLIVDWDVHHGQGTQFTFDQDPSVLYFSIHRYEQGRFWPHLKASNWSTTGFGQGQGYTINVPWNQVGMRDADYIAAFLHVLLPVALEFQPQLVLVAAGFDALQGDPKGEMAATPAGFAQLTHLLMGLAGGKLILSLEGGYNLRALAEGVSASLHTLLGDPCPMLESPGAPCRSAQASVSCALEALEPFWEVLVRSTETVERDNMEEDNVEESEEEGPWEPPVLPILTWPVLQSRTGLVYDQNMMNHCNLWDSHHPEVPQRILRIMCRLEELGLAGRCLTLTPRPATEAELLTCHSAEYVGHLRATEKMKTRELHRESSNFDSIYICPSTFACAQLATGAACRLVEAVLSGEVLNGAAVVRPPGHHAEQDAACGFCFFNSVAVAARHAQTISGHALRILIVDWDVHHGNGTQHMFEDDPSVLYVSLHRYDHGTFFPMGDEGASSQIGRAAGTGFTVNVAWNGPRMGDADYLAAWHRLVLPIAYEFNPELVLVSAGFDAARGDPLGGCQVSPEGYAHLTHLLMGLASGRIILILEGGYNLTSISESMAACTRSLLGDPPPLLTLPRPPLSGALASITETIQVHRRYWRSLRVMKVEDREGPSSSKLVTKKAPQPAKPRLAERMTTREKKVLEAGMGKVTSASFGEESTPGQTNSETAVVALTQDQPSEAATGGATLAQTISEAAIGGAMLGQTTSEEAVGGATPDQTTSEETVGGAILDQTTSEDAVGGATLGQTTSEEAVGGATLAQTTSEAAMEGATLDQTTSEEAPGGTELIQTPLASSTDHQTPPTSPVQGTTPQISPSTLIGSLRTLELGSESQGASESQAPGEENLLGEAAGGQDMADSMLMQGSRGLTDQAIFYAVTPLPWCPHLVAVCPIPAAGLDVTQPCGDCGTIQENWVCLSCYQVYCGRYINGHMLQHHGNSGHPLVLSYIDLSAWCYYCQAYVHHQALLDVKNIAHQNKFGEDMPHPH

Histone deacetylase 8 = molecular target: T5, Histone deacetylase 8 (Homo sapiens, UniProt Q9BY41); assay: Inhibition of full-length recombinant C-terminal His-tagged human HDAC8 expressed in baculovirus infected Sf9 insect cells using Ac-Leu-Gly-Lys(Tfa)-AMC as substrate preincubated for 5 mins followed by substrate addition and further incubated for 30 mins by fluorescence based microtiter plate reader assay
T5 sequence (Q9BY41 whole entry): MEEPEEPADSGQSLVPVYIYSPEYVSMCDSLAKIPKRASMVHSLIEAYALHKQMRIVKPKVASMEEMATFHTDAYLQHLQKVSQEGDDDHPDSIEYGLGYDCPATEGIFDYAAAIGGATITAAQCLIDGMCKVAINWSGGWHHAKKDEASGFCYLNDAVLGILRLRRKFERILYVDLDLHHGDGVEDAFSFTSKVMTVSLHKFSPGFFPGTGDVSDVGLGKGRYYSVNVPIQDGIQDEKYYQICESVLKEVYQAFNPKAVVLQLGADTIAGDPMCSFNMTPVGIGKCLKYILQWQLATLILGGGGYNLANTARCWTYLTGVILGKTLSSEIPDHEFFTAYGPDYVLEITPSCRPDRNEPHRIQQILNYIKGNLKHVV

Histone deacetylase 1 [12] = molecular target: T2, Histone deacetylase 1; assay: Inhibition of HDAC1 in HEL cells assessed as increase in acetyl-H3 levels at 20 to 100 nM incubated for 24 hrs by western blot analysis; assay type: cell-based; conditions: dose 20-100 nM
Histone deacetylase 2 [13] = molecular target: T3, Histone deacetylase 2; assay: Inhibition of HDAC2 in HEL cells assessed as increase in acetyl-H4 levels at 20 to 100 nM incubated for 24 hrs by western blot analysis; assay type: cell-based; conditions: dose 20-100 nM

T3 sequence (Q92769 whole entry): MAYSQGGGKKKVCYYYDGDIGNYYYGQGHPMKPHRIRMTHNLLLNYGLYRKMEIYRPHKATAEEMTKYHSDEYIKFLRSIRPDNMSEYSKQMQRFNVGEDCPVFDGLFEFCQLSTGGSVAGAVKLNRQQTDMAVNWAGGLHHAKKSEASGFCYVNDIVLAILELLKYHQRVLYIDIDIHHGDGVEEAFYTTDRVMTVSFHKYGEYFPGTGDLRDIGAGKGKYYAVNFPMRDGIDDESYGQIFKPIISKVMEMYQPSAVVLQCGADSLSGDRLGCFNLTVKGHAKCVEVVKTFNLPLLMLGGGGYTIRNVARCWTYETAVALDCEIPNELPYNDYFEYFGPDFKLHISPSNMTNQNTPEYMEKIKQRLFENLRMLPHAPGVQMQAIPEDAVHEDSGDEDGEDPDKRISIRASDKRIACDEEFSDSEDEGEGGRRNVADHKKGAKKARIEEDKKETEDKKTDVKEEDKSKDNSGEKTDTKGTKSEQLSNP
T2 sequence (Q13547 whole entry): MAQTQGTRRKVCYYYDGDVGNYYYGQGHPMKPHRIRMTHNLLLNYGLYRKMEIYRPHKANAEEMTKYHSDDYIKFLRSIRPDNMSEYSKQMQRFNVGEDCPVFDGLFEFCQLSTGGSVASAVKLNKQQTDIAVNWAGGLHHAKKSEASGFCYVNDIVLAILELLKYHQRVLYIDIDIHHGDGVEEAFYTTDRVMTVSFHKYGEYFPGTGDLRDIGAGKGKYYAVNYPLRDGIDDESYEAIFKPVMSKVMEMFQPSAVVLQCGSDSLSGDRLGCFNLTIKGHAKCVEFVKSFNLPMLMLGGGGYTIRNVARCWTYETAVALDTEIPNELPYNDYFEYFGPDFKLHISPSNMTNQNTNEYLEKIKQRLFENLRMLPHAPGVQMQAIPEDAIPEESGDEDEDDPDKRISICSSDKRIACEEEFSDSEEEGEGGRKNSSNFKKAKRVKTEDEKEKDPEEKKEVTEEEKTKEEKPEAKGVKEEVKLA
Sequence of DNA topoisomerase 2-alpha (Homo sapiens) (P11388 whole entry): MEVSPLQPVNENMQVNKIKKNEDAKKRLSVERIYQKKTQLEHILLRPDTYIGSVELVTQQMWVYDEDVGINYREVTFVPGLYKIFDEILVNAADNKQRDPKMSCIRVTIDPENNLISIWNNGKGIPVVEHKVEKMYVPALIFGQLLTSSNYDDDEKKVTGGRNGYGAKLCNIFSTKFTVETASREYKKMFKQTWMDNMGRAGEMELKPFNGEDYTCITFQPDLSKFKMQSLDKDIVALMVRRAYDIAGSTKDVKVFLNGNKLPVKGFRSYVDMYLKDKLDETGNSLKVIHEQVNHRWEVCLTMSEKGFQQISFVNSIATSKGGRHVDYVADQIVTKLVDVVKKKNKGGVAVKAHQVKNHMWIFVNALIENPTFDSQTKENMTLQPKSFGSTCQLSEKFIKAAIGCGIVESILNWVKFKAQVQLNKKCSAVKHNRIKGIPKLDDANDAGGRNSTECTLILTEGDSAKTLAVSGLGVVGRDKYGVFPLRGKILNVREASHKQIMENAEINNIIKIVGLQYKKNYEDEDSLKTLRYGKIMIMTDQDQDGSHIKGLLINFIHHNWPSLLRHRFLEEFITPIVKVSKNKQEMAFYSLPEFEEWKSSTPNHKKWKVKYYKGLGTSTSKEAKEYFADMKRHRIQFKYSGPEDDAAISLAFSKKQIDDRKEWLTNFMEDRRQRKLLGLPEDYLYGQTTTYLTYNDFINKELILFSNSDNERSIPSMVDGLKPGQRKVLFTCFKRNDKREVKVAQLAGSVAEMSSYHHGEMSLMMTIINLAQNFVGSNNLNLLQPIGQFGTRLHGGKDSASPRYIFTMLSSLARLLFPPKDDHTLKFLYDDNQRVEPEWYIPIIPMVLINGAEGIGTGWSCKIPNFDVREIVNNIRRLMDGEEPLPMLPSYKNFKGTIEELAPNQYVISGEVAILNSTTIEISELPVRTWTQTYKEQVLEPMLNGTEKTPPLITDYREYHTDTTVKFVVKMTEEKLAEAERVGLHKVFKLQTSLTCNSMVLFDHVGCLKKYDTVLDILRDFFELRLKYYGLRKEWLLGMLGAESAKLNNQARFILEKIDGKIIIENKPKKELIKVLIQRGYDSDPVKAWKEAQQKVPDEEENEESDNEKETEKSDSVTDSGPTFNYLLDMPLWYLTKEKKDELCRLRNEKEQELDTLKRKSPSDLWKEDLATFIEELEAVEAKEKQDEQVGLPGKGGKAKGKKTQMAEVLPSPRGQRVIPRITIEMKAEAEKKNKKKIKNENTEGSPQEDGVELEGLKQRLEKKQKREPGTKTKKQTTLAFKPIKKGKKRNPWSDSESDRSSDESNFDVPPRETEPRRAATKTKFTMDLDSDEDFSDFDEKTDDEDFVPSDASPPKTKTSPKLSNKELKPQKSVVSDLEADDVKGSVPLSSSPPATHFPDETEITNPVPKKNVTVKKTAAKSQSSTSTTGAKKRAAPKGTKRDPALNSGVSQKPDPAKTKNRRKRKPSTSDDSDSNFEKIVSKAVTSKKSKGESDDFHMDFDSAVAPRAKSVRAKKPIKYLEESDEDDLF
Sequence of Histone deacetylase 3 (O15379 whole entry): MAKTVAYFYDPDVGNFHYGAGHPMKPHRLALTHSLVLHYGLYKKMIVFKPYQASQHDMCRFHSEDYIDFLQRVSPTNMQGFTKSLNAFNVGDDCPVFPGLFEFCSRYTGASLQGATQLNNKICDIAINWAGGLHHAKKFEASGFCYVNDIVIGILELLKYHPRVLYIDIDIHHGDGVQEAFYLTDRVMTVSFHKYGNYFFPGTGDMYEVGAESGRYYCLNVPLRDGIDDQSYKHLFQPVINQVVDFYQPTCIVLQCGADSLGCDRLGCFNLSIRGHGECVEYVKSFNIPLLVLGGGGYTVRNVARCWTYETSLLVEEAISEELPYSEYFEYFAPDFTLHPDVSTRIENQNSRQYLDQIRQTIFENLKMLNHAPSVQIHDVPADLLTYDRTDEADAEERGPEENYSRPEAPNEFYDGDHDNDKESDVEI

Row | SMILES | Activity (HEL [1]) [%] | Activity (HEL [2]) [%] | T/C (HEL [3]) [%] | inhibition [4] | inhibition [5] | IC50 (Histone deacetylase 1 [6]) [nM] | IC50 (MCF7) [nM] | IC50 (A549) [nM] | IC50 (HCT-116) [nM] | IC50 (HepG2) [nM] | IC50 (K562) [nM] | IC50 (HEL [7]) [nM] | inhibition [8] | inhibition [9] | IC50 (Histone deacetylase 2 [10]) [nM] | IC50 (Histone deacetylase 3) [nM] | IC50 [11] [nM] | IC50 (Histone deacetylase 8) [nM] | inhibition (Histone deacetylase 1 [12]) | inhibition (Histone deacetylase 2 [13])
1 | O=C(CCCCCCC(=O)Nc1ccccc1)NO [VORINOSTAT] | 15.83 | 46.97 | 88.3 | – | – | – | – | – | – | – | – | – | – | – | – | – | – | – | – | –
2 | CN1c2ccc(F)cc2C(=O)N2CCc3c([nH]c4ccc(OCc5ccc(/C=C/C(=O)Nc6ccccc6N)cc5)cc34)C21 (stereo not given) | – | – | – | Active | Active | 320 | > 2000 | 930 | > 2000 | 290 | 120 | 240 | Active | Active | 42000 | 15000 | 11000 | 690 | Active | Active
